Assay: in vitro
Conditions: human, hela cells, % viability

SMILES	viability at 28.5 h, 10 µM
COC(=O)CNC(=O)CNS(=O)(=O)c1ccc(C(C)=O)cc1 [CBK044117]	89.1%
O=S(=O)(NCC1CCCO1)c1cccs1 (stereo not drawn) [CBK044263]	103%
CCCCNS(=O)(=O)c1ccc(Cl)c(Cl)c1 [CBK044309]	96.5%
COC[C@@H]1CCCN1S(=O)(=O)c1ccc(Cl)c(Cl)c1 [CBK044313]	91.3%
CC(=O)c1ccc(S(=O)(=O)NCc2ccc(C(F)(F)F)cc2)cc1 [CBK044314]	108%
COC[C@@H]1CCCN1S(=O)(=O)c1ccc(OC(F)(F)F)cc1 [CBK044338]	92.4%
O=S(=O)(Nc1cccc(Br)c1)c1ccc(OC(F)(F)F)cc1 [CBK044369]	114%
CC1(C)COC(=O)N1C1CCN(C(=O)c2ccno2)CC1 [CBK044383]	95.7%
CCc1cc(Br)ccc1S(=O)(=O)NC1CCOC1=O (stereo not drawn) [CBK044385]	97.5%
Cc1noc(C)c1Cn1cc(NS(=O)(=O)c2cccs2)cn1 [CBK044394]	97.9%
CC(C)c1ccc(S(=O)(=O)N2CCN(c3ccc(C#N)cc3)CC2)cc1 [CBK044404]	97.3%
N#CCCN(CC1CCCO1)S(=O)(=O)c1ccc(OC(F)(F)F)cc1 (stereo not drawn) [CBK044405]	91.5%
CN(CCC#N)S(=O)(=O)c1ccc(OC(F)(F)F)cc1 [CBK044415]	88.1%
CC(C)c1ccc(S(=O)(=O)NCCc2ccccc2)cc1 [CBK044426]	94.1%
CC(=O)c1ccc(S(=O)(=O)NCC2CC2)cc1 [CBK044440]	100%
O=S(=O)(c1cc(Cl)ccc1Cl)N1CCCN(Cc2ccccc2)CC1 [CBK044491]	104%
CC1(C)COC(=O)N1C1CCN(C(=O)CNC(=O)c2cccs2)CC1 [CBK044501]	93.1%
O=S(=O)(c1ccc(C(F)(F)F)cc1)N1CCC2(CC1)OCCO2 [CBK044520]	91.1%
Cc1cccc(C(C)(C)C)c1NC(=O)NCCc1cccs1 [CBK044530]	98.9%
COC(=O)[C@H](CC1CCCCC1)NS(=O)(=O)c1ccc(C(C)C)cc1 [CBK044551]	96.3%
CC(C)c1ccc(S(=O)(=O)Nc2cccc(SC(F)(F)F)c2)cc1 [CBK044581]	99.5%
CC(C)c1ccc(S(=O)(=O)Nc2ccon2)cc1 [CBK044584]	115%
CCC(COC)NS(=O)(=O)c1ccc(C(C)C)cc1 (stereo not drawn) [CBK044587]	108%

SMILES	viability at 28.5 h, 10 µM
Cc1cnc(CNS(=O)(=O)c2ccc(C(C)C)cc2)cn1 [CBK044615]	118%
O=S(=O)(Nc1cccc(Cl)c1)c1ccc(Cl)c(Cl)c1 [CBK044636]	79.3%
Cc1cc(NS(=O)(=O)c2ccc(C(C)C)cc2)n[nH]1 [CBK044646]	106%
CCOCCNS(=O)(=O)c1ccc(C(C)(C)CC)cc1 [CBK044655]	98.2%
CC(C)c1ccc(S(=O)(=O)NCc2csc3ccccc23)cc1 [CBK044662]	96.6%
Cc1cc(Cl)ccc1CNS(=O)(=O)c1cccs1 [CBK044714]	97%
CC(C)c1ccc(S(=O)(=O)NCc2ccc(F)c(F)c2F)cc1 [CBK044717]	102%
CCCCCNC(=O)N1CCN(CC(=O)OCC)CC1 [CBK044786]	96.6%
CCc1cc(Br)ccc1S(=O)(=O)NCCCC(=O)OC [CBK044788]	88.2%
CCCOCCCNS(=O)(=O)c1ccc(C(C)(C)CC)cc1 [CBK044821]	106%
O=S(=O)(c1cccc(F)c1)N1CCC(Cc2ccccc2)CC1 [CBK044828]	102%
CCCCN(C)S(=O)(=O)c1ccc(C(C)(C)CC)cc1 [CBK044836]	89.9%
CCOC(=O)C1CCCN(S(=O)(=O)c2cc(C)c(Cl)cc2C)C1 (stereo not drawn) [CBK044846]	108%
N#CCCCCn1cc(NC(=O)NCCc2cccs2)cn1 [CBK044855]	100%
CCc1cc(Br)ccc1S(=O)(=O)NCCOc1ccccc1 [CBK044882]	88.4%
CCc1cc(Br)ccc1S(=O)(=O)Nc1ccnn1CC [CBK044900]	92.7%
CCOC(=O)CC(C)NS(=O)(=O)c1ccc(OC(F)(F)F)cc1 (stereo not drawn) [CBK044954]	104%
CCN(CCc1ccccn1)S(=O)(=O)c1ccc(OC(F)(F)F)cc1 [CBK044968]	92.4%
CCC(C)(C)c1ccc(S(=O)(=O)NCC2CC2)cc1 [CBK044994]	93%
CCc1cc(Br)ccc1S(=O)(=O)Nc1cccc2cccnc12 [CBK045012]	87.8%
CC1(C)COC(=O)N1C1CCN(C(=O)CCS/C=C\c2ccccc2)CC1 [CBK045134]	95.3%
Cc1ccc(C#N)c(NS(=O)(=O)c2cc(C)c(Cl)cc2C)c1 [CBK045250]	96.6%
